Structures are written as SMILES.

The nature of one assay: Ligand facilitated Fe(III) efflux from liposomes. The note with it: 10 uM ligand concentration; Table 1. The protocol:
Assay 1: Ligand Facilitated Fe(III) Efflux from Liposomes Preparation of POPC (1-palmitoyl-2-oleoyl-sn-glycero-3-phosphocholine): Cholesterol Liposomes:
A 1M buffer solution of MES and Tris was prepared by dissolving 121.14 grams of Tris base and 213.25 grams of MES hydrate in 500 mL of MilliQ water and adjusted to pH7.0 using an […] HCl solution before bringing the total volume of the solution to 1 L. A 500 mM solution of FeCl3 was prepared by dissolving 0.811 grams of anhydrous FeCl3 in 10 mL of a 0.1M H2SO4 aqueous solution. Inside buffer is prepared in a 50 mL falcon tube, which was added with 25 mL of MilliQ water, 1.61 g of sodium citrate, 1.5 mL of the above FeCl3 solution, and 2.5 mL of the 1M MES/Tris HCl buffer (pH=7.0), and finally additional MilliQ H2O to bring to a 50 mL final volume.
Lipid solution is prepared by dissolving 206.9 mg of POPC (1-palmitoyl-2-oleoyl-sn-glycero-3-phosphocholine) and 8.6 mg of cholesterol in 10 mL of ethanol.
The lipids solution and the inside buffer solution are independently loaded into 10 mL luer lock syringes for loading into a virgin cartridge on a Precision Nanosystems NanoAssembler to prepare unilamaller liposomes with the following parameters: 7.5 mL total volume, 1.5:1 mixing ratio of inside buffer:lipids solution, 8 mL/min flow rate, ambient temperature, 0.35 mL start waste, and 0.05 mL of end waste. 7.5 mL of liposomes is harvested for purification on a 6-inch long, 1-inch diameter Sephadex G-50 column wetted in 600 mM sodium ascorbate and 50 mM MES/Tris HCl pH 7.0 buffer. This buffer also serves as the column running buffer. The crude liposome solution is carefully loaded with minimal volume of running buffer above the top of the Sphadex, allowed to enter the matrix, and the column is run with the continued addition of running buffer. The eluting liposomes, observed as a milky and turbid solution, are collected until free iron begins to elute (observed as a deep purple color) and the fractions are pooled for phosphorus quantitation.
Phosphorus content of eluted liposomes was determined by the process outlined below. 10 uL of liposome elution and a running buffer blank are added to a 5 mL glass vial containing 450 uL of a 8.9 M aqueous H2SO4 solution, the mixture is heated to 225° C. for 25 minutes in an aluminum heat block to hydrolyze POPC and cooled for 5 minutes. 200 ul of a 30% hydrogen peroxide aqueous solution is added to each vial and heated to 225° C. for 25 minutes. After cooling, the phosphorus content was determined using an Abcam Phosphate Assay kit, with buffer subtracted phosphorus levels determined against a standard curve of phosphate included in the kit. Liposomes were diluted to 1 mM phosphate in Running Buffer for use in assays after accounting for dilutions made during phospholipid digestion.
Determination of the rate at which a small molecule ligand liberates (transport) Ferric iron from liposomes is performed in clear bottom black 384-well plates on a Spectramax i3x set to read the absorbance at 562 nm in the kinetic mode every 60 seconds for 120 minutes. 1 uL of serially diluted DMSO stock solution of a small molecule ligand is added to wells in triplicate to give the final concentrations of 40, 20, 10, 5, 2.5, and 1.25 uM of the ligand at 80 μL final volume, followed by addition of 1 μL of 100 mM Ferrozine in water to give a final concentration of 1 mM ferrozine. 78 uL of liposomes diluted to 1 mM phosphorus in running buffer is added to wells as quickly as possible (using a digital repeater mulchannel pipette) with the kinetic read initiated as rapidly as possible after addition of liposomes to all wells. Typically, eight compounds at six concentrations are tested in triplicate simultaneously.
Upon completion of kinetic read, the data for individual reads is fitted to a single phase association regression with the equation Y=(Y0−YMax)^(−kX)+YMax, with Y being the 562 absorbance value and X being time in minutes. […]
For the compound `O=c1cccc(-c2ccncc2)cc1O` [Ex.7, 2-hydroxy-4-(pyridin-4-yl)cyclohepta-2,4,6-trien-1-one], the “Liposome Fe transport kefflux at 10 10 μM” value was 0.1-5.

For the compound `Nc1ccc(-c2cccc(=O)c(O)c2)cn1` [Ex.13, 4-(6-aminopyridin-3-yl)-2-hydroxycyclohepta-2,4,6-trien-1-one], the “Liposome Fe transport kefflux at 10 10 μM” value was 0.1-5. Same read-out and setting: next, `Cc1ccncc1-c1cccc(=O)c(O)c1` [Ex.14, 2-hydroxy-4-(4-methylpyridin-3-yl)cyclohepta-2,4,6-trien-1-one]: 0.1-5; `Cc1nc(C)c(-c2cccc(=O)c(O)c2)cc1F.O=C(O)C(F)(F)F` [Ex.20, 4-(5-fluoro-2,6-dimethylpyridin-3-yl)-2-hydroxycyclohepta-2,4,6-trien-1-one]: 0.1-5. `Cc1nc(C)c(-c2ccc(O)c(=O)cc2)cc1F.O=C(O)C(F)(F)F` [Ex.21, 5-(5-fluoro-2,6-dimethylpyridin-3-yl)-2-hydroxycyclohepta-2,4,6-trien-1-one]: the “Liposome Fe transport kefflux at 10 10 μM” value is reported as 0.1-5. On the same count and under the same terms, next, `O=c1ccc(-c2ccc(F)cn2)ccc1O` [Ex.22, 5-(5-fluoropyridin-2-yl)-2-hydroxycyclohepta-2,4,6-trien-1-one]: 0.1-5; `Cc1cc(-c2ccc(F)cn2)ccc(O)c1=O.O=C(O)C(F)(F)F` [Ex.25, 4-(5-fluoropyridin-2-yl)-7-hydroxy-2-methylcyclohepta-2,4,6-trien-1-one]: 5-7.5; `Cc1cccc(-c2cncc(F)c2)c(=O)c1O.O=C(O)C(F)(F)F` [Ex.27, 7-(5-fluoropyridin-3-yl)-2-hydroxy-3-methylcyclohepta-2,4,6-trien-1-one]: 10-25. `CSc1nccc(-c2ccccc(O)c2=O)n1` [Ex.40, 2-hydroxy-7-(2-(methylthio)pyrimidin-4-yl)cyclohepta-2,4,6-trien-1-one]: the “Liposome Fe transport kefflux at 10 10 μM” value is on record as 5-7.5.

In the case of `Nc1ncc(-c2cccc(=O)c(O)c2)cn1.O=C(O)C(F)(F)F` [Ex.41, 4-(2-aminopyrimidin-5-yl)-2-hydroxycyclohepta-2,4,6-trien-1-one], the “Liposome Fe transport kefflux at 10 10 μM” value was 0.1-5. On to `O=c1cccc(-c2ncccn2)cc1O` [Ex.43, 2-hydroxy-4-(pyrimidin-2-yl)cyclohepta-2,4,6-trien-1-one], for which the “Liposome Fe transport kefflux at 10 10 μM” value is given as 5-7.5. Still for that read-out and setting: next, `O=c1ccc(-c2ncccn2)ccc1O` [Ex.44, 2-hydroxy-5-(pyrimidin-2-yl)cyclohepta-2,4,6-trien-1-one]: 0.1-5; `Cc1cncc(-c2cccc(=O)c(O)c2)c1` [Ex.55, 2-hydroxy-4-(5-methylpyridin-3-yl)cyclohepta-2,4,6-trien-1-one]: 0.1-5; `Cc1ncc(F)cc1-c1ccc(O)c(=O)cc1` [Ex.60, 5-(5-fluoro-2-methylpyridin-3-yl)-2-hydroxycyclohepta-2,4,6-trien-1-one]: 0.1-5.

Still in this assay, the particulars now being: 10 uM ligand concentration; Table 2.
For `CC(C)c1cccc(-c2cncc(F)c2)c(=O)c1O` [Ex.62, 7-(5-fluoropyridin-3-yl)-2-hydroxy-3-isopropylcyclohepta-2,4,6-trien-1-one], the “Liposome Fe transport Kefflux at 10 μM” value is listed as less than 0.1.

Turning to `Cc1c(F)cncc1-c1ccc(O)c(=O)c(C)c1` [Ex.63, 4-(5-fluoro-4-methylpyridin-3-yl)-7-hydroxy-2-methylcyclohepta-2,4,6-trien-1-one], the “Liposome Fe transport Kefflux at 10 μM” value is 10-25.

On to `Cc1c(F)cncc1-c1ccc(O)c(=O)c(C(C)C)c1` [Ex.64, 4-(5-fluoro-4-methylpyridin-3-yl)-7-hydroxy-2-isopropylcyclohepta-2,4,6-trien-1-one], for which the “Liposome Fe transport Kefflux at 10 μM” value is listed as less than 0.1. The same measure, in the same setting: the same measure for `O=c1ccc(Oc2ccc(F)cc2)ccc1O` [Ex.65, 5-(4-fluorophenoxy)-2-hydroxycyclohepta-2,4,6-trien-1-one]: 5-7.5; for `O=c1ccccc(-c2c(F)cccc2F)c1O` [Ex.68, 3-(2,6-difluorophenyl)-2-hydroxycyclohepta-2,4,6-trien-1-one]: 7.5-10.

On to `O=c1ccccc(-c2ncccc2F)c1O` [Ex.71, 3-(3-fluoropyridin-2-yl)-2-hydroxycyclohepta-2,4,6-trien-1-one], for which the “Liposome Fe transport Kefflux at 10 μM” value is on record as 0.1-5. Regarding `O=c1ccccc(-c2ccc(F)cn2)c1S` [Ex.72, 3-(5-fluoropyridin-2-yl)-2-mercaptocyclohepta-2,4,6-trien-1-one], the “Liposome Fe transport Kefflux at 10 μM” value is 7.5-10. On the same count and under the same terms, next, `O=C1C=CC(CCc2nc(-c3ccccc(=O)c3O)ccc2F)S1` (stereo not drawn) [Ex.74, 5-(2-(3-fluoro-6-(2-hydroxy-3-oxocyclohepta-1,4,6-trien-1-yl)pyridin-2-yl)ethyl)thiophen-2(5H)-one]: 0.1-5; `Cc1cccc(Oc2ccc(F)cc2F)c(O)c1=O` [Ex.77, 3-(2,4-difluorophenoxy)-2-hydroxy-7-methylcyclohepta-2,4,6-trien-1-one]: 0.1-5; `Cc1cccc(Oc2ccccc2)c(O)c1=O` [Ex.78, 2-hydroxy-7-methyl-3-phenoxycyclohepta-2,4,6-trien-1-one]: 0.1-5. Same read-out and setting: next, `O=c1ccccc(-c2cocn2)c1O` [Ex.79, 2-hydroxy-3-(oxazol-4-yl)cyclohepta-2,4,6-trien-1-one]: 5-7.5; `O=c1ccccc(-c2nccs2)c1O` [Ex.80, 2-hydroxy-3-(thiazol-2-yl)cyclohepta-2,4,6-trien-1-one]: 5-7.5. `O=c1c(F)cccc(-c2cscn2)c1O` [Ex.81, 7-fluoro-2-hydroxy-3-(thiazol-4-yl)cyclohepta-2,4,6-trien-1-one]: the “Liposome Fe transport Kefflux at 10 μM” value is 7.5-10.

As for `O=c1c(Cl)cccc(-c2cscn2)c1O` [Ex.82, 7-chloro-2-hydroxy-3-(thiazol-4-yl)cyclohepta-2,4,6-trien-1-one], the “Liposome Fe transport Kefflux at 10 μM” value is listed as 0.1-5. For the compound `O=c1ccc(F)cc(-c2cscn2)c1O` [Ex.83, 5-fluoro-2-hydroxy-3-(thiazol-4-yl)cyclohepta-2,4,6-trien-1-one], the “Liposome Fe transport Kefflux at 10 μM” value is on record as 0.1-5.

On to `COC(=O)Cc1ccc(Oc2ccccc(=O)c2O)c(F)c1` [Ex.84, methyl 2-(3-fluoro-4-((2-hydroxy-3-oxocyclohepta-1,4,6-trien-1-yl)oxy)phenyl)acetate], for which the “Liposome Fe transport Kefflux at 10 μM” value is 5-7.5.

Consider `O=c1ccccc(-c2ccns2)c1O` [Ex.85, 2-hydroxy-3-(isothiazol-5-yl)cyclohepta-2,4,6-trien-1-one], for which the “Liposome Fe transport Kefflux at 10 μM” value was 0.1-5.

As to `COC(=O)c1ccc(Oc2ccccc(=O)c2O)c(F)c1` [Ex.86, methyl 3-fluoro-4-((2-hydroxy-3-oxocyclohepta-1,4,6-trien-1-yl)oxy)benzoate], the “Liposome Fe transport Kefflux at 10 μM” value is reported as 0.1-5. Same read-out and setting: next, `O=c1ccc(C(CO)Cc2ccccc2)cc(-c2cscn2)c1O` (stereo not drawn) [Ex.87, 2-hydroxy-5-(1-hydroxy-3-phenylpropan-2-yl)-3-(thiazol-4-yl)cyclohepta-2,4,6-trien-1-one]: 0.1-5.

The record behind these values is patent US20240018105A1, “TROPOLONE DERIVATIVES AND TAUTOMERS THEREOF FOR IRON REGULATION IN ANIMALS” (Kinesid Therapeutics, Inc., priority 2019, published 2024).
